Data as given in patent US9789181B2, “PAN-DR binding polypeptides and uses thereof” (Epimmune Inc., priority 2009, dated 2017).
pIC50: −log10 of the molar value. Where no end group is shown, it is not given here.

Tests used:
HLA DRB1 *0301 = HLA DRB1 *0301 (Homo sapiens, UniProt P01903+P01911, A100K/A102G/A103R/A169T/F55Y/I96L/K41T/L162R/M171V/P40S/Q125H/Q178H/Q39Y/R42S/S66N/T106N/T262R/W38E/Y61H); experiment: IC50nM to purified HLA | DRB1 *0301
Procedure: (§1) Table printed on a drawing sheet, FIG. 1 (contd.)
Head of the field: IC50nM to purified HLA | DRB1 *0301
(§2) First copying reader's note: Continued from an earlier sheet of FIG. 1; decimal commas as printed, analog names encode substituted residues and positions, and some values are printed in italics or bold and some SEQ ID NOs underlined without a legend on this sheet.
Where the first naming reader finds the target: head: IC50nM to purified HLA | DRB1 *0301

HLA DRB1 *1501 = HLA DRB1 *1501 (Homo sapiens, UniProt P01903+P01911); experiment: IC50nM to purified HLA | DRB1 *1501
Procedure: as §1
Head of the field: IC50nM to purified HLA | DRB1 *1501
as §2
Where the first naming reader finds the target: head: IC50nM to purified HLA | DRB1 *1501

HLA DRB1 *0802 = HLA DRB1 *0802 (Homo sapiens, UniProt P01903+P01911, A100R/A103L/A169T/F76Y/H45Y/I96F/K41T/L162R/M171V/P40S/Q125H/Q178H/Q39Y/Q99D/R218S/R42G/S66Y/V115G/W38E); experiment: IC50nM to purified HLA | DRB1 *0802
Procedure: as §1
Head of the field: IC50nM to purified HLA | DRB1 *0802
as §2
Where the first naming reader finds the target: head: IC50nM to purified HLA | DRB1 *0802

HLA DRB1 *1101 = HLA DRB1 *1101 (Homo sapiens, UniProt P01903+P01911, A100R/A169T/A87E/I96F/K41T/L162R/M171V/P40S/Q125H/Q178H/Q39Y/Q99D/R42S/S66Y/T262R/V115G/W38E); experiment: IC50nM to purified HLA | DRB1 *1101
Procedure: as §1
Head of the field: IC50nM to purified HLA | DRB1 *1101
as §2
Where the first naming reader finds the target: head: IC50nM to purified HLA | DRB1 *1101

HLA DRB1 *0701 = HLA DRB1 *0701 (Homo sapiens, UniProt P01903+P01911, A100R/A102G/A103Q/D57E/D86V/E43K/F76Y/K127E/L162R/M171V/P40G/Q125H/Q99D/R33Q/R42Y/R54Q/S133A/S66F/T210M/V115G/Y107V/Y59L/Y89S); experiment: IC50nM to purified HLA | DRB1 *0701
Procedure: as §1
Head of the field: IC50nM to purified HLA | DRB1 *0701
as §2
Where the first naming reader finds the target: head: IC50nM to purified HLA | DRB1 *0701

HLA DRB1 *0401 = HLA DRB1 *0401 (Homo sapiens, UniProt P01903+P01911, A100K/A169T/F76Y/I96L/K127E/L162R/M171V/N62H/P40V/Q125Y/R42H/S133A/S149N/S66Y/V115G/V209L/W38E); experiment: IC50nM to purified HLA | DRB1 *0401
Procedure: as §1
Head of the field: IC50nM to purified HLA | DRB1 *0401
as §2
Where the first naming reader finds the target: head: IC50nM to purified HLA | DRB1 *0401

HLA DRB5 *0101 = HLA DRB5 *0101 (Homo sapiens, UniProt P01903+Q30154); experiment: IC50nM to purified HLA | DRB5 *0101
Procedure: as §1
Head of the field: IC50nM to purified HLA | DRB5 *0101
as §2
Where the first naming reader finds the target: head: IC50nM to purified HLA | DRB5 *0101

HLA DRB1 *0101 = HLA DRB1 *0101 (Homo sapiens, UniProt P01903+P01911, A100R/D57E/F55L/F60I/F76Y/I96L/L162R/M171V/P40L/Q125E/R42F/V115G/Y59C); experiment: IC50nM to purified HLA | DRB1 *0101
Procedure: as §1
Head of the field: IC50nM to purified HLA | DRB1 *0101
as §2
Where the first naming reader finds the target: head: IC50nM to purified HLA | DRB1 *0101

HLA DRB1 *0404 = HLA DRB1 *0404 (Homo sapiens, UniProt P01903+P01911, A100R/A169T/F76Y/I96L/K127E/L162R/M171V/N62H/P40V/Q125Y/R42H/S133A/S149N/S66Y/V209L/W38E); experiment: IC50nM to purified HLA | DRB1 *0404
Procedure: as §1
Head of the field: IC50nM to purified HLA | DRB1 *0404
as §2
Where the first naming reader finds the target: head: IC50nM to purified HLA | DRB1 *0404

HLA DRB4 *0101 = HLA DRB4 *0101 (Homo sapiens, UniProt P01903+P13762, G164S); experiment: IC50nM to purified HLA | DRB4 *0101
Procedure: as §1
Head of the field: IC50nM to purified HLA | DRB4 *0101
as §2
Where the first naming reader finds the target: head: IC50nM to purified HLA | DRB4 *0101

HLA DRB1 *1302 = HLA DRB1 *1302 (Homo sapiens, UniProt P01903+P01911, A100E/A169T/K41T/L162R/M171V/P40S/Q125H/Q178H/Q39Y/Q99D/R42S/S66N/T262R/V115G/W38E/Y61H); experiment: IC50nM to purified HLA | DRB1 *1302
Procedure: as §1
Head of the field: IC50nM to purified HLA | DRB1 *1302
as §2
Where the first naming reader finds the target: head: IC50nM to purified HLA | DRB1 *1302

HLA DRB1 *0901 = HLA DRB1 *0901 (Homo sapiens, UniProt P01903+P01911, A100R/A103E/D57H/D86V/F55Y/F60I/F76Y/I96F/K127E/L162R/M171V/P40D/Q125H/Q99R/R33Q/R42F/S133A/S66N/T210M/V115G/W38K/Y107V/Y59G/Y89S); experiment: IC50nM to purified HLA | DRB1 *0901
Procedure: as §1
Head of the field: IC50nM to purified HLA | DRB1 *0901
as §2
Where the first naming reader finds the target: head: IC50nM to purified HLA | DRB1 *0901

HLA DRB1 *0405 = HLA DRB1 *0405 (Homo sapiens, UniProt P01903+P01911, A100R/A169T/D86S/F76Y/I96L/K127E/L162R/M171V/N62H/P40V/Q125Y/R42H/S133A/S149N/S66Y/V115G/V209L/W38E); experiment: IC50nM to purified HLA | DRB1 *0405
Procedure: as §1
Head of the field: IC50nM to purified HLA | DRB1 *0405
as §2
Where the first naming reader finds the target: head: IC50nM to purified HLA | DRB1 *0405

Chain of HLA DRB1 *1302 (P01903 26-254 limits assumed, other chains not shown): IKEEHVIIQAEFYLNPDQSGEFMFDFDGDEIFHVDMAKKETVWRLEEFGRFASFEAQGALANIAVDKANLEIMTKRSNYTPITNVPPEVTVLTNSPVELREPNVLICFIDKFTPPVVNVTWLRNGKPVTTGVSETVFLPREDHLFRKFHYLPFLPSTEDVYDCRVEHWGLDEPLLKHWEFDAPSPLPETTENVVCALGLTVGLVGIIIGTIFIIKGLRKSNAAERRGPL
Chain of HLA DRB1 *0301 (P01903 26-254 limits assumed, other chains not shown): as above
Chain of HLA DRB4 *0101 (P01903 26-254 limits assumed): as the sequence (P01903 26-254 limits assumed, other chains not shown) above
Chain of HLA DRB4 *0101 (P13762 whole entry G164S): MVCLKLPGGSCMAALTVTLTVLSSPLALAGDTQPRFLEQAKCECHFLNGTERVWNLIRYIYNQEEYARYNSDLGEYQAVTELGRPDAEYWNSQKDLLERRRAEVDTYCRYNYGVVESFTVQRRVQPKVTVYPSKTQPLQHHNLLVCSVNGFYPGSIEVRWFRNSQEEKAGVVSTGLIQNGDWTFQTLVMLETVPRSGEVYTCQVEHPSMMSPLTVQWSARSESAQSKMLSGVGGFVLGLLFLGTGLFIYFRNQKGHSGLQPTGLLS
Chain of HLA DRB1 *1101 (P01903 26-254 limits assumed, other chains not shown): as the sequence (P01903 26-254 limits assumed, other chains not shown) above

pIC50 (HLA DRB1 *0301) | pIC50 (HLA DRB1 *1501) | pIC50 (HLA DRB1 *0802) | pIC50 (HLA DRB1 *1101) | pIC50 (HLA DRB1 *0701) | pIC50 (HLA DRB1 *0401) | pIC50 (HLA DRB5 *0101) | pIC50 (HLA DRB1 *0101) | pIC50 (HLA DRB1 *0404) | pIC50 (HLA DRB4 *0101) | pIC50 (HLA DRB1 *1302) | pIC50 (HLA DRB1 *0901) | pIC50 (HLA DRB1 *0405) | Sequence
6.50 | 7.11 | 7.62 | 7.36 | 7.12 | 8.48 |  |  |  |  |  |  |  | AAAQFVAANTLHAAA [SEQ ID NO: 67]
 |  | 7.46 | 7.39 | 7.28 | 8.26 | 7.62 | 8.12 | 8.01 |  |  |  |  | AAANFVAAWTLKADA [SEQ ID NO: 55]
 | 6.94 |  |  | 7.08 | 8.47 | 7.37 | 8.21 |  | 5.96 | 7.36 |  |  | AAANFVAANTLHAAA [SEQ ID NO: 54]
5.97 | 7.96 | 7.68 |  |  | 7.89 |  |  | 8.21 | 6.14 | 6.23 | 7.37 |  | AAANFVAAYTLKAEA [SEQ ID NO: 60]
6.14 | 7.51 | 7.72 |  |  |  | 7.82 | 8.74 |  | 6.66 | 5.98 |  | 8.42 | AAANFVAAWTLKAEA [SEQ ID NO: 59]
5.82 | 7.92 | 7.66 | 7.00 |  | 8.20 |  |  | 7.82 |  | 6.09 | 7.36 |  | AAANFVAAYTLKADA [SEQ ID NO: 56]
6.41 | 8.14 | 7.85 |  | 7.12 |  |  | 8.40 | 8.80 | 6.91 |  |  |  | AAAIFVAAWTLKAAA [SEQ ID NO: 68]
6.60 |  | 7.92 |  | 7.28 | 8.80 |  | 8.33 |  | 6.95 |  | 7.39 | 7.92 | AAANFVAAFTLHAAA [SEQ ID NO: 53]
6.52 | 8.49 | 8.03 | 7.72 | 7.02 |  |  | 8.24 |  | 6.46 | 5.71 |  |  | AAAIFVAAYTLHAAA [SEQ ID NO: 70]
 | 7.77 |  |  | 6.96 | 8.57 |  | 8.14 | 8.35 | 6.96 | 7.19 | 7.12 |  | AAAIFVAANTLHAAA [SEQ ID NO: 72]
 |  | 7.89 |  |  | 8.57 |  |  | 8.36 | 7.01 |  | 7.51 | 8.11 | AAAQFVAAFTLHAAA [SEQ ID NO: 66]
5.76 |  |  | 7.11 | 6.97 |  | 7.47 |  | 7.96 | 6.02 |  |  |  | AAANFVAANTLKAEA [SEQ ID NO: 62]
6.73 | 7.89 |  |  |  |  |  |  |  |  | 5.95 |  | 7.89 | AAAQFVAAWTLHAAA [SEQ ID NO: 64]
 | 6.53 |  |  |  | 8.01 |  |  |  | 5.20 | 6.57 | 6.96 |  | AAANFVAANTLKADA [SEQ ID NO: 58]
6.57 | 7.77 |  | 7.92 |  | 8.80 | 8.28 | 8.29 |  | 6.59 |  |  | 7.68 | AAAQFVAAWTLKAAA [SEQ ID NO: 63]
6.82 | 8.44 | 8.29 | 7.77 |  | 8.66 | 7.62 | 8.38 |  | 6.37 | 6.15 | 7.68 | 7.66 | AAAQFVAAYTLHAAA [SEQ ID NO: 65]
5.81 |  | 7.85 |  |  |  |  | 8.10 |  | 6.31 | 5.80 |  | 7.92 | AAANFVAAFTLKAEA [SEQ ID NO: 61]
 | 7.62 |  | 7.13 |  | 8.37 |  | 8.00 | 7.92 |  |  |  | 7.89 | AAANFVAAFTLKADA [SEQ ID NO: 57]

Sequence | pIC50 (HLA DRB1 *0301) | pIC50 (HLA DRB1 *1501) | pIC50 (HLA DRB1 *0802) | pIC50 (HLA DRB1 *1101) | pIC50 (HLA DRB1 *0701) | pIC50 (HLA DRB1 *0401) | pIC50 (HLA DRB5 *0101) | pIC50 (HLA DRB1 *0101) | pIC50 (HLA DRB1 *0404) | pIC50 (HLA DRB4 *0101) | pIC50 (HLA DRB1 *1302) | pIC50 (HLA DRB1 *0901) | pIC50 (HLA DRB1 *0405)
AAAIFVAAFTLHAAA [SEQ ID NO: 71] | 6.35 | 8.01 |  | 7.92 | 6.69 |  | 7.68 | 7.92 | 8.57 | 6.93 |  | 7.10 | 7.85
